Measured values published in patent US20240228659A1, “NEW METHOD TO IMPROVE NK CELLS CYTOTOXICITY” (INSERM (INSTITUT NATIONAL DE LA SANTÉ ET DE LA RECHERCHE …, priority 2021, published 2024).

Columns and labels:
Type in all cases: in vivo, mouse
[1] = system: PD-L1; experiment: PD-L1 tumor cell surface expression, flow cytometry of dissociated liver metastasis; conditions: FIG. 2B; residual liver metastasis; untreated mice 31.3±7.19%
Method: FIG. 2. Effect of retinoic acid alone or in combination with 8B6 therapy on O-acetyl-GD2 and PD-L1 expression in vivo. Tumor cells harvested from the indicated group were stained with either OAcGD2-specific mAb (A) or PD-L1-specific mAb (B). (A) Flow cytometry analysis was performed with single cell suspension obtained from the liver metastasis harvested from mice in FIG. 1 to assess the OAcGD2 expression, as indicated. […] The level of OAcGD2 expression remains stable after treatments (ns, not significant; p>0.5). (B) Single cell suspension from (A) were also tested for PD-L1 tumor cell surface expression, as indicated. The left panel indicates the percentage of PD-L1 positive tumor cells. […]
(§1) For flow cytometry analysis, cells were first incubated with a mAb specific for mouse CD16/CD32 to prevent nonspecific binding of primary antibodies against FcγR, and then, were labeled with specific conjugated mAbs. […] Quantification of total cell numbers by flow cytometry was performed done using fluorescent beads (C36950, Thermo Fisher, Waltham, MA, USA). Flow cytometric analysis were performed using an BD FACSCanto II (BD Bioscience) and data were analyzed using FlowJo software (Flowjo LLC, Oregon, OR, USA). The fold increase of tumor NK cell infiltration was calculated by dividing the number of NK cell infiltrated of each condition by the mean of the number of NK cell.

[2] = system: NXS2 cells; experiment: murine NXS2 neuroblastoma experimental liver metastasis model in A/J mice; conditions: FIG. 1B; 8 mice/group; day 27 after i.v. NXS2 inoculation; 8B6 25 μg i.v. twice weekly x3 weeks; 13-cis-RA 10 mg/kg per os
Method: FIG. 1. 13-cis-Retinoic acid enhances anti-neuroblastoma activity of anti-O-acetylated GD2 ganglioside in vivo. (A) Mice (8 animal/group) were inoculated with 2.5×10^5 NXS2 cells by i.v. injections on day 0. Antibody 8B6 treatment was performed on days 3, 7, 10, 14, 17, and 21 (cumulative dose=150 μg). 13-cis-retinoic acid treatment was given at 10 mg/kg, per os, five times weekly, day 17 to 21. Mice were euthanized 27 days post-tumor cell inoculation. (B) Anti-tumor efficacy was evaluated by determining the number of liver metastasis. Mean liver metastasis number±SEM of each treatment group, as depicted (** p<0.01; Mann-Whitney test). (C) The mice body weight was recorded for each treatment group, as indicated. Mean weight (mean±SEM, n=8) of mice on day 0 was defined as 100% weight. Weight in each group remained stable for the period of the treatment.
FIG. 4. […] (B) Anti-tumor efficacy was evaluated by determining the liver metastasis on fresh specimen. […] (C) The mice body weight was recorded for each treatment group, as indicated. […]
The anti-neuroblastoma efficacy of mAb 8B6 and chemotherapeutic treatments was determined in the murine NXS2 neuroblastoma experimental liver metastasis model in A/J mice, previously described (28). […] Mice were euthanized on day 27 post-tumor challenge, and anti-tumor efficacy was evaluated by determining the number of liver metastasis.

[3] = system: CD45+NKp46+CD3− NK cells; experiment: tumor NK cell infiltration, flow cytometry; conditions: FIG. 3B; PBS control 0.88±0.2%
Text: FIG. 3. 13-cis-Retinoic acid combined with mAb 8B6 increases PD-1+NK cell tumor infiltration. (A) Dot plots histograms showing the gating strategy used for flow cytometric identification of CD45+NKP46+CD3− NK cells in tumor cells. (B) Fold increase of total count of NK cells in tumor cells were achieved by flow cytometry of cells gated, as indicated. […] (C) Percentage of PD-1+NK cells in tumor cells from the indicated group.
Liver metastasis were dissociated with the mouse tumor dissociation kit and the gentle MACS dissociator (Miltenyi) according to the manufacturer's instructions. Single cell suspensions were obtained by passing through a 70 μm pore-size cell MACS SmartStrainer (Miltenyi). […]
as §1

CC1=C(/C=C/C(C)=C/C=C/C(C)=C\C(=O)O)C(C)(C)CCC1 [13-cis-RA, 13-cis-retinoic acid]
percentage of PD-L1+ tumor cells [1]: 39.45±9.76% | number of liver metastasis (mean±SEM) [2]: 14.40±0.98 | intratumoral CD45+NKp46+CD3− NK cells [3]: 2.49±0.29%
